1 molecule from US12202840B2, “Compounds for the treatment or alleviation of disorders associated with Tau aggregates” (AC Immune SA, priority 2018, dated 2025) can be followed below.

Assay type in all cases: in vivo
Assay [1] concerns rTg4510 mice. Put plainly: Morris Water Maze behavioral test, study of Example 2. Particulars: once daily by gavage, 7 and 20 mg/kg, statistical significance at 20 mg/kg, FIG. 4. As for the experimental part: Double transgenic rTg4510 mice are an aggressive Tauopathy model expressing the full-length human Tau carrying the P301L mutation (Tau4R0N-P301L) under the control of the tetracycline-inducible CaMKII promoter (Ramsden et al., 2005). Wild-type animals and single transgenic mice expressing only the tetracycline-controlled transactivator (tTA) were used as genotype controls. Mice were treated and tested. The study comprised 4 treatment groups (n=15 female mice/group) with the following group distribution (see Table 6). Compound of the invention or vehicle control were administered once daily by gavage for 12 weeks starting at the age of 5.5 weeks. The Morris Water Maze (MWM) behavioral test was performed after 12.5 weeks of treatment over 5 consecutive days. During MWM testing daily dosing was continued. Behavioral testing (MWM) and biochemical quantification of sarkosyl-insoluble Tau were performed on all mice (n=15 mice/group). […]
The MWM was performed in a circular tank, measuring 48″ in diameter. […] Trials were video recorded and analyzed by a computer program (WaterMaze; Actimetrics, Wilmette, Ill.). […] Percent crossing in each quadrant (target, left and right adjacent, and opposite) was calculated for probe trials. Data were analyzed by 2-way ANOVA followed by post-hoc comparisons and shown statistics refers to differences compared to vehicle treated rTg4510 mice.

Assay [2] concerns the target T1, sarkosyl-insoluble Tau (Homo sapiens, UniProt P10636, P618L).
T1 construct: expressing the full-length human Tau carrying the P301L mutation (Tau4R0N-P301L); from tissue; host or cells: brain (cortex) of double transgenic rTg4510 mice
In words: Sarkosyl-insoluble Tau quantification in cortex, study of Example 2. Conditions: rTg4510 mice cortex, once daily by gavage, 7 and 20 mg/kg; statistical significance at 20 mg/kg; FIG. 5. On the procedure: (§1) Double transgenic rTg4510 mice are an aggressive Tauopathy model expressing the full-length human Tau carrying the P301L mutation (Tau4R0N-P301L) under the control of the tetracycline-inducible CaMKII promoter (Ramsden et al., 2005). Wild-type animals and single transgenic mice expressing only the tetracycline-controlled transactivator (tTA) were used as genotype controls. Mice were treated and tested. The study comprised 4 treatment groups (n=15 female mice/group) with the following group distribution (see Table 6). Compound of the invention or vehicle control were administered once daily by gavage for 12 weeks starting at the age of 5.5 weeks. The Morris Water Maze (MWM) behavioral test was performed after 12.5 weeks of treatment over 5 consecutive days. During MWM testing daily dosing was continued. Behavioral testing (MWM) and biochemical quantification of sarkosyl-insoluble Tau were performed on all mice (n=15 mice/group). Measurement of cortical atrophy and histology for Iba1 were performed on 10 mice/group.
After behavioral testing, mice were deeply anesthetized by standard injectable anesthesia and transcardially perfused with cold PBS. Brains were then removed and hemi-sagitally hemisected. […] The membranes were finally scanned using LiCor scanner (Odyssey Infrared Imager) and quantified using the LiCor software Image Studio Lite Version 5.2. […]

The test system of assay [3] is Iba1 positive microglia. In words: Iba1 immunoreactivity (microgliosis), study of Example 2. Particulars: rTg4510 mice, once daily by gavage, 20 mg/kg; FIG. 6B. On the procedure:
as §1
One section per animal from layer 6 was also used to quantify the Iba1 immunoreactivity. […] Sections were imaged using a digital slide scanner (Pannoramic 250 BF Flash+FL, 3D Histech Ltd.) and quantified using the image visualization software CaseViewer and the image analysis software module HistoQuant (3D Histech Ltd.).

T1 sequence (P10636 1-383 isoform P10636-6 P243L): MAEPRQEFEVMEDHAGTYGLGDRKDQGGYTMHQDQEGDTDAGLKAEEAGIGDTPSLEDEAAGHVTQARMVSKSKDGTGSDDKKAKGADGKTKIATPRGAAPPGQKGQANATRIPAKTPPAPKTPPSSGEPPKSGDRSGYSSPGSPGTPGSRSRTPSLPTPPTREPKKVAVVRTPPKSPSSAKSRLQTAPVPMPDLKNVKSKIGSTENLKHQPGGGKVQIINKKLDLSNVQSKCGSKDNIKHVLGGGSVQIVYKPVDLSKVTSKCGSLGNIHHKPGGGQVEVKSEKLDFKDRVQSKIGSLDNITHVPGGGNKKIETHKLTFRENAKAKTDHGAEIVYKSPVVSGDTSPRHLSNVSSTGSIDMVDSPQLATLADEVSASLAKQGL

With `CN(C)[C@@H]1CCc2c(c3ccc(Nc4ccc5sc(N6CCOCC6)nc5c4)nc3n2C)C1` [Example 2], the “percentage of platform crossings in the target compared to the opposite quadrant (MWM probe trial)” value in assay [1] is “dose-dependent increase”. The “sarkosyl insoluble Tau” value in assay [2] was “dose-dependent decrease”. Further, in assay [3], the Iba1 immunoreactive area result is “significant decrease”.
